Several values for one entry are separate records, joined by “and”; a condition that tells them apart may be missing. Equal entries are not always repeated.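 Cells were grown in 96-well plates and exposed to each compound for 48 hours at five concentrations; endpoints were interpolated linearly between bracketing concentrations, or set to the highest concentration if not reached. GI50 = concentration required for 50% inhibition of growth. TGI: total growth inhibition.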
Experiments:
Assay in all cases: NCI tumour cell line growth inhibition, 48 h
NCI-H23 lung = system: NCI-H23 lung
SNB-75 CNS = system: SNB-75 CNS
A498 renal = system: A498 renal
SK-OV-3 ovarian = system: SK-OV-3 ovarian
MALME-3M melanoma = system: MALME-3M melanoma
CCRF-CEM leukemia = system: CCRF-CEM leukemia
OVCAR-8 ovarian = system: OVCAR-8 ovarian
MOLT-4 leukemia = system: MOLT-4 leukemia
UACC-62 melanoma = system: UACC-62 melanoma
HCC-2998 colon = system: HCC-2998 colon

SMILES	GI50 (NCI-H23 lung)	TGI (NCI-H23 lung)	GI50 (SNB-75 CNS)	TGI (SNB-75 CNS)	GI50 (A498 renal)	TGI (A498 renal)	GI50 (SK-OV-3 ovarian)	TGI (SK-OV-3 ovarian)	GI50 (MALME-3M melanoma)	GI50 (CCRF-CEM leukemia)	TGI (CCRF-CEM leukemia)	GI50 (OVCAR-8 ovarian)	TGI (OVCAR-8 ovarian)	GI50 (MOLT-4 leukemia)	TGI (MOLT-4 leukemia)	GI50 (UACC-62 melanoma)	TGI (UACC-62 melanoma)	GI50 (HCC-2998 colon)	TGI (HCC-2998 colon)	TGI (MALME-3M melanoma)
Cc1ccc(S(=O)(=O)Nc2nc3ccccc3nc2Nc2ccc3nsnc3c2)cc1	2.78 µM and 2.93 µM	44.5 µM and > 100 µM	8.81 µM and 3.89 µM	> 100 µM	4.85 µM and 2.86 µM	> 100 µM	4.76 µM	> 100 µM	2.18 µM and 1.34 µM	3.32 µM and 2.93 µM	> 100 µM	4.3 µM and 4.19 µM	> 100 µM	4.3 µM and 3.61 µM	34.9 µM and > 100 µM	1.81 µM and 2.02 µM	10.4 µM and > 28.2 µM	3.47 µM and 3.67 µM	42.9 µM and > 100 µM	
CCCCCCCCCCCC[n+]1ccc(C(N)=O)cc1	2.81 µM	14 µM	2.08 µM	6.61 µM	4.85 µM	19.5 µM	4.18 µM	15.2 µM	2.59 µM	3.61 µM	> 100 µM	3.34 µM	13.1 µM	3.29 µM	> 100 µM	2.74 µM	11.6 µM	2.71 µM	10.9 µM	8.81 µM
OC(CNc1ccnc2cc(Cl)ccc12)CNC1CCCCC1 (centres undefined)	15.9 µM	41 µM	2.1 µM	8.31 µM	1.52 µM	8.16 µM	10.5 µM	32.8 µM	1.89 µM	7.29 µM	42.4 µM	5.07 µM	19.9 µM	9.15 µM	31.9 µM	2.15 µM	5.2 µM	3.79 µM	11 µM	3.8 µM
CCCN(CCC)C(=O)[C@H](CC)[C@@H]1CC[C@@H](C)[C@@H]([C@H](C)[C@@H](O)[C@@H](C)C(=O)[C@H](CC)C2O[C@]3(C=C[C@@H](O)[C@]4(CC[C@@](C)([C@H]5CC[C@](O)(CC)[C@H](C)O5)O4)O3)[C@H](C)C[C@@H]2C)O1 (some centres undefined)	2.52 µM	7.01 µM	1.73 µM	14.4 µM	2.13 µM	5.85 µM	3.29 µM	19.9 µM	1.72 µM	2.78 µM	8.83 µM	3.5 µM	24.6 µM	2.39 µM	6.41 µM	1.71 µM	4.93 µM	2.18 µM	5.76 µM	3.71 µM
C=C(C)[C@H](O)C(O)CC(C)[C@@H]1CCC23CC12CCC1[C@@]2(C)CCC(OC(C)=O)C(C)(C)C2CC(OC2OC(COC(C)=O)C(O)C(O)C2O)[C@]13C (some centres undefined)		14 µM		9.03 µM		14.7 µM		14.3 µM			9.7 µM		12.8 µM		8.94 µM		9.4 µM		12.4 µM	14.7 µM
Cc1cccc2c1C/C(=C1\CCc3c(C)cccc31)C2=O		> 100 µM		> 100 µM		> 100 µM		> 100 µM			> 100 µM		> 100 µM		> 100 µM		> 100 µM		> 100 µM	> 100 µM
Oc1ccc(N=Nc2ccc(N=Nc3ccccc3)cc2)cc1	4.1 µM	19.5 µM	9.84 µM	47.8 µM	9.23 µM	21.7 µM	3.29 µM	7.87 µM	11.6 µM	0.379 µM	14 µM	3.2 µM	24.2 µM	0.351 µM	11.9 µM	0.874 µM	2.41 µM	2.52 µM	11.1 µM	25.7 µM
O=C(/C=C1/NC(=O)CS1)Nc1ccccc1		> 100 µM		> 100 µM		> 100 µM		> 100 µM			> 100 µM		> 100 µM		> 100 µM		> 100 µM		> 100 µM	> 100 µM
N#Cc1nc2cc(F)c(F)cc2nc1-c1ccc(Cl)cc1	7.92 µM	33.9 µM	33.1 µM	83.1 µM	82 µM	> 100 µM	> 46.7 µM	> 88 µM	15.8 µM	0.181 µM	3.12 µM	2.09 µM	4.76 µM	3.21 µM	> 28.3 µM	0.645 µM	7.17 µM	3.93 µM	17.6 µM	39.1 µM
C[CH2][Sn]([Cl])([Cl])[CH2]C	19.9 µM	41.4 µM	24.9 µM	> 61.7 µM	23.4 µM	43.7 µM	> 100 µM	> 100 µM	15.8 µM	9.5 µM	39.9 µM	> 100 µM	> 100 µM	29 µM	> 94.5 µM	22 µM	47.8 µM	> 64.9 µM	> 100 µM	30.3 µM
Oc1c(N=Nc2ccccc2)c2ccccc2c2ccc3ccccc3c12		> 100 µM		> 100 µM		> 100 µM		> 100 µM			> 100 µM		> 100 µM		> 100 µM		> 100 µM		> 100 µM	> 100 µM
CCCCCN(CCCCC)CC(O)c1cc2c(c3ccccc13)CCCC2 (centres undefined)	3.72 µM and 5.94 µM	14.7 µM and 24.6 µM	10.4 µM and 11.9 µM	22.7 µM and 25.1 µM	3.34 µM and 10.8 µM	14.1 µM and 23.5 µM	12.4 µM and 17 µM	24.9 µM and 34.8 µM	3.71 µM and 10.4 µM	5.55 µM and 9.21 µM	22.5 µM and 91.7 µM	11.3 µM and 14.9 µM	26.1 µM and 32.9 µM	2.95 µM and 26.4 µM	13 µM and > 100 µM	3.31 µM and 11.2 µM	12.9 µM and 29.2 µM	2.54 µM and 4.28 µM	5.99 µM and 15.6 µM	15.6 µM and 24.6 µM
COCCNC(=O)c1ccc(-c2nc3ccc4[nH]ncc4c3c3c2CCCC3)cc1	2.41 µM	31.1 µM	2.01 µM	6.24 µM	0.174 µM	2.93 µM	0.905 µM	5.59 µM	2.74 µM	2.44 µM	16.6 µM	2.64 µM	> 100 µM	1.61 µM	5.62 µM	1.58 µM	13.1 µM	2.98 µM	> 100 µM	18 µM
C[C@@H]1C[C@@]2(O[C@@H]2C)C(=O)O[C@@H]2CCN3CC=C(COC(=O)[C@]1(C)O)[C@H]23		> 100 µM		> 100 µM		> 100 µM		> 100 µM			> 100 µM		> 100 µM		> 100 µM		> 100 µM		> 100 µM	> 100 µM

— PubChem BioAssay (NCI)
